Source: patent publication US20230122463A1, “ORGANIC FINE PARTICLE” (DAIKIN INDUSTRIES, LTD., priority 2020, published 2023)

Assays:
[1] = Water contact angle of polymer (spin-coated film, static contact angle); type: physicochemical; settings: homopolymer of the monomer; silicon wafer spin-coated with 1.0% chloroform solution; 2 µL water, 1 minute after the droplet reached the film
Procedure: For the water contact angle of the polymer, a silicon wafer substrate was spin-coated with a chloroform solution of the resulting polymer with a solid concentration of 1.0% and the static water contact angle was measured. The static contact angle was obtained by dropping 2 µL of water on a coating film and measuring the contact angle 1 minute after the droplet reached the film.

[2] = Solubility in water of polymer and of monomer; type: physicochemical; settings: thermodynamic from solid
Procedure: For the solubility in water of the monomers, the respective monomers were added in small batches to a predetermined amount of water, and the solubility in water was determined from the amount of dissolution when no more monomer could be dissolved (floating, precipitation or deposition occurred, or the solution became clouded).

solubility [2] [µg/mL] | melting point [°C] | SMILES | Water contact angle of homopolymer [1] [°]
< 100 | 50 | C=CC(=O)OCCCCCCCCCCCCCCCCCC [SA, stearyl acrylate] | 102
 |  | C=C(C)C(=O)OCC(CC)CCCC (stereo not shown) [EHMA, 2-ethyhexyl methacrylate] | 97
